Patent publication US20070099826A1, “Treatment of diseases associated with the egr-1 enhancer element” (priority 2003, published 2007)

How the values were obtained:
[1] = system: APO A1 protein; assay: Immunofluorescence staining of APO A1 protein in Hep G2 cells; type: cell-based, human; details: 5 or 10 μM
Protocol: (§1) Human hepatoblastoma cells (HepG2) and intestinal cells (CaCo2) were obtained from the American Type Culture Collection (Rockville, Md.). Cells were grown in Minimum Essential Medium (MEM) (Gibco) supplemented with 2 mM glutamine, MEM vitamin solution and 10% fetal bovine serum (FBS) for HepG2 and 20% FBS (Gibco) for CaCo2 cells. All cells were incubated in a 95% air/5% CO2 atmosphere.
The CaCo2 or HepG2 cells were grown in the defined media and, for promoter assay studies, transfected with the reporter construct of interest. Cells were then left in serum-free media for 8-12 hours after which time resveratrol was added to media to give a final concentration of the agent as stated in the figure legends. […]
(§2) HepG2 and CaCo2 cells were grown on cover slips. […] The FITC-labeled ApoA1 peptide in cells was visualized using a Zeiss fluorescence microscope (Zeiss, Dusseldorf, Germany) with FITC excitation and emission wavelengths of 488 and 520 nm. […]
Since the APO A1 gene is expressed in both liver and small intestine, the following studies examine the ability of resveratrol to affect expression of the gene in liver cells. […] Hep G2 cells were viewed under phase contrast or fluorescence microscopy following treatment with or without resveratrol and immunostaining for their content of APO A1 protein.

[2] = system: APO A1 promoter; assay: APO A1 promoter activity, Hep G2 cells permanently transfected with pA1.474-Luc; type: cell-based, human; details: 10 μM resveratrol
Protocol: HepG2 cells were also permanently transfected with 474-luciferase using a co-transfection method. Hep G2 cells are grown in MEM (Gibco) and 10% fetal calf serum (Gibco) and then co-transfected with 474-Luc along with another plasmid that carries neomycin resistance.
(§3) Cells were transfected with Luciferase plasmid of interest (see above) and left to recover overnight in serum poor media. These cells or those that were permanently transfected with the luciferase promoter were then treated with varying concentrations of resveratrol for stated periods of time. As above, RSV-beta-Gal was co-transfected as a control to normalize for DNA uptake. Cells were then harvested and suspended in reporter lysis buffer (Promega). A 10 μl aliquot of this lysate was used for determination of luciferase activity, and 5 μl were used for total protein determination (Bradford Assay, Bio-Rad reagent). Luciferase activity was then determined and expressed relative to the protein concentration of that sample.
To assay for promoter activity in Hep G2 cells, the reporter construct pA1.474-Luc was inserted into the human hepatoma, Hep G2, cells along with pRSV-β-galactosidase as a monitor for transfection efficiency using conventional molecular biology techniques as later described. The transfected cells were exposed to varying concentrations of resveratrol from 0 to 100 μM for 16 hours. […]

[3] = system: human APO A1 promoter from −474 to −7; assay: APO A1 promoter activity, pA1.474-Luc reporter transiently transfected in CaCo2 cells; type: cell-based
Protocol: (§4) The plasmids created for the studies contained the human APO A1 promoter from −474, −375, −325, −235, −190 to −170 fused to the firefly luciferase gene in the vector, pGL3 (Promega). Insertion of the promoter DNA was verified by nucleotide sequence analysis. Plasmid DNA was prepared from bacteria containing the desired clone and isolated using Qiagen kits according to manufacturer's instructions and used in the tansfection studies or to create a stable cell line.
(§5) The CaCo2 or HepG2 cells were grown in the defined media and, for promoter assay studies, transfected with the reporter construct of interest. Cells were then left in serum-free media for 8-12 hours after which time resveratrol was added to media to give a final concentration of the agent as stated in the figure legends. The cells were exposed to the agent for varying periods of time, harvested and then the parameter of interest, either APO A1 protein or promoter activity, was assayed.
(§6) For transient transfections cells were seeded onto six well plates and grown to 30-40% confluence, The cells were then transfected using 5 μl of Superfect (Qiagen) and up to one microgram of the plasmid of interest in 100 μl of serum and antibiotic free MEM. The solution was incubated for 10 minutes at room temperature. Media was then removed from the cells to be transfected and 1 ml of media was added to the DNA-Superfect mixture before being applied to the cells. The cells were then exposed to the DNA for 2 hours at 37° C./5% CO2 and then the media containing DNA was removed and replaced with serum free MEM media allowed to grow over night prior to harvest.
Cells were transfected with Luciferase plasmid of interest (see above) and left to recover overnight in serum poor media. […] Luciferase activity was then determined and expressed relative to the protein concentration of that sample.
Next the CaCo2 cells were exposed to varying concentrations of resveratrol from 0 to 15 μM. […] At the end of the treatment, the cells were harvested and the Luc-activity measured. […]

[4] = system: APO A1 protein; assay: Western blot of APO A1 protein in spent media from CaCo2 cells; type: cell-based, human; details: 5 or 10 p,M, 36 hours
Protocol: (§7) Media or cells were harvested from untreated and treated HepG2/CaCo2 culture dishes at various time points and stored at −80° C. when required. For experiments in which media was collected for western blotting, cells from these dishes were trypsinized (Gibco) and a 100 μl sample of cells was used to determine the percentage of dead cells by counting live/dead cell ratios using […] staining. The remaining cells were then assessed for total DNA content using method described by Maniatis, (Cloning Manual). DNA content per dish was then utilized along with ratio of live/dead cells to normalize the amount of media to be separated by polyacrylamide gel electrophoresis. For experiments requiring western blot of whole cell lysates, cells were harvested and lysed using reporter lysis reagent (Promega) and cell debris was spun down at 13,000 rpm for 5 minutes. […]
This to experiment sought to measure whether resveratrol stimulation of transcriptional activity of the promoter in the CaCo2 cells increased the abundance of the APO A1 protein, ultimately responsible for the antiatherogenic activity of the gene. […] Longer exposure of the cells to resveratrol was utilized to allow adequate time for the APO A1 protein to be secreted into the media from the CaCo2 cells, and detected. […]

[5] = system: APO A1 protein; assay: Western blot of APO A1 protein in spent media from Hep G2 cells; type: cell-based, human; details: 5 or 10 p,M, 36 hours
Protocol: as §7, with “minutes. An aliquot of the supernatant was then used to determine amount of protein per samples were using Bradford assay (Rio-Rad reagent). Equal amounts of protein from all samples were then separated by polyacrylamide gel electrophoresis as was done with media.” for “minutes.”
To measure whether resveratrol stimulation of the APO A1 promoter in the Hep G2 cells also increases the abundance of the protein, APO A1 secreted into the media was assessed following treatment with the compound. […]

[6] = system: APO A1 protein; assay: Immunofluorescence staining of APO A1 protein in CaCo2 cells; type: cell-based, human; details: 5 and 10 μM, 36 hours of treatment
Protocol: as §1, §5
as §2, with “slips. Cover slips on which CaCo2 cells were grown were also coated with fibronectin (Calbiochem).” for “slips.”

[7] = system: APO A1 promoter; assay: APO A1 promoter deletion constructs fused to Luc, transient transfection in CaCo2 cells; type: cell-based, human; details: 5 μM, minimum of 16 hours
Protocol: as §4, §6, §3
In order to identify the potential motif(s), separate constructs containing progressively smaller amounts of APO A1 DNA were fused to the Luc gene. The activity of each construct was tested by transient transfection assay in CaCo2 cells and than treated with 5 μM resveratrol for a minimum of 16 hours. […] The number at the bottom of each set of columns denotes the 5′ location of the fragment and the 3′ end is common to all deletional clones at −7. […] In contrast, further deletion with the remaining −170 to −7 fragment of the promoted abolished the resveratrol induction of the promoter. We discovered the resveratrol responsive motif in the APO A1 DNA must span nucleotides −190 to −170.

[8] = system: APO A1 promoter; assay: APO A1 promoter activity, pA1.474-Luc reporter transiently transfected in Hep G2 cells; type: cell-based, human
Protocol: as §4, §5, §6
Cells were transfected with Luciferase plasmid of interest (see above) and left to recover overnight in serum poor media. These cells or those that were permanently transfected with the luciferase promoter were then treated with varying concentrations of resveratrol for stated periods of time. As above, RSV-beta-Gal was co-transfected as a control to normalize for DNA uptake. […] Luciferase activity was then determined and expressed relative to the protein concentration of that sample. […]

For `Oc1ccc(/C=C/c2cc(O)cc(O)c2)cc1` [resveratrol, trans-3,5,4′-trihydroxystilbene], the “fluorescence for APO A1 signal (immunostaining)” value [1] was “increase in fluorescence”, the “maximal increase of Luc-activity” value [2] was 4 fold and the “optimal time point for stimulatory effect on APO A1 promoter” value ([3]; 5 μM, time points 4 to 24 hours) was “around 16 hours”. For the same compound, the “maximal stimulation of APO A1 promoter activity (Luc-activity)” value ([3]; 16 hours, resveratrol 5 to 7.5 μM) was 2.5 fold, the “resveratrol concentration causing maximal stimulation of APO A1 promoter activity” value ([3]; 16 hours, tested 0 to 15 μM) was 5 to 7.5 µM and the “abundance of APO A1 protein in spent media (western blot)” value [4] was “marked increase”. For the same compound, the “abundance of APO A1 protein in spent media (western blot)” value [5] was “marked increase”, the “abundance of APO A1 signal (immunohistochemical staining)” value [6] was “increase in the abundance of APO A1 signal” and the “increase in promoter activity, −190 to −7 fragment” value [7] was 2.5 fold. For the same compound, the “increase in promoter activity, −235 to −7 fragment” value [7] was 2.5 fold, the “induction of promoter activity, full-length (−474 to −7) promoter” value [7] was 2.5 fold and the “induction of promoter, −170 to −7 fragment” value [7] was “abolished”. The “concentration at which resveratrol becomes inhibitory on APO A1 promoter activity” value ([8]; 16 hours) was at least 50 µM, the “increase in Luc-activity (APO A1 promoter)” value ([8]; 16 hours, 5 to 10 μM resveratrol) was 3 fold and the “decrease in Luc-activity” value ([8]; 16 hours, 15, 25, 50, 75 or 100 μM) was 50%.
